For series [1] the following is noted: cited from earlier work.
Series [2] in a line: Concentration of CEs in human urine determined by fully automated FA-SPME/GC-MS. Particulars: urine of a volunteer working at water desalination facility; urine diluted 1:1 with ultrapure water before extraction. How it is done:
Analyses were performed using a gas chromatograph (Agilent technologies, 7890A GC) coupled with a quadrupole mass selective spectrometer (Agilent technologies, 5975C) equipped with an inert ion source and provided with a split-splitless injection port. An A HP-5 GC fused silica capillary column (Agilent 19091J-413; 30 m×320 μm ID×0.25 μm thickness) was selected to separate the analytes. CTC CombiPAL autosampler (GC sampler 80, Zwingen, Switzerland) was used for the full automated FA-SPME. Ultra high purity helium (99.999%, Abdulah Hashim, Al-Khobar, Saudi Arabia) was used as the carrier gas at a flow rate of 1.3 mL min^−1. The samples were injected in the splitless mode. The temperature program used for the analyses was as follows: the initial temperature was 40° C. held 1 min which was then increased to 118° C. at 10° C. min^−1 and held for 3 min, then to 190 C at 15° C. min^−1 and held for 4 min. The total run time was 18.6 min. The injection port, ion source and interface temperatures were 280° C., 230° C., and 250° C., respectively. For qualitative determinations, the MSD was operated in full-scan mode from m/z 50 to 550 and selective ion monitoring mode was used for the quantification of the analytes. […]
The applicability of the proposed FA-SPME technique for real water and urine sample matrices were evaluated. […]

For series [3] the following is noted: cited from earlier work. The source holds these as a separate data set.

Structures are written as SMILES. ≈ marks a conversion by molar mass, not a printed value.

Consider 2 molecules from patent US9207219B1, “Fully automated analytical method for determination of chloroethers in water and urine sample” (priority 2014, dated 2015).

As for `ClCCOCCCl` [BCEE, Bis(2-chloroethyl)ether], in series [1], the “Solubility at 20-25° C.” value was 10200 µg/mL (≈ 71.3 mM), the “Vapor pressure at 20-25° C.” value is on record as 1.34 mmHg, the “Henry's law constant at 20° C.” value is 0.00089 and the “Diffusion coefficient in air” value is on record as 0.069 cm^2 s^−1. For the same molecule, the “Diffusion coefficient in water” value in series [1] was 7.53E−06 cm^2 s^−1. The “concentration in real sample, Human urine” value in series [2] stood at 30.8 ng/mL.

In the case of `ClCCOCOCCCl` [BCEM, Bis(2-chloroethoxy)methane], in series [1], the “Solubility at 20-25° C.” value was 1353.4 µg/mL (≈ 7.82 mM), the “Vapor pressure at 20-25° C.” value was 0.179 mmHg, the “Henry's law constant at 20° C.” value was 0.001 and the “Diffusion coefficient in air” value is listed as 0.058 cm^2 s^−1. For the same molecule, the “Diffusion coefficient in water” value in series [1] is listed as 7.11E−06 cm^2 s^−1. Further, the “concentration in real sample, Human urine” value in series [2] turned out to be 11.5 ng/mL. Further, in series [3], the “minimum half-life in water” value is at least 2 years.
